In US9181239B2, “Pyridopyrimidinone inhibitors of kinases” (AbbVie Inc., priority 2011, dated 2015):

target: T1, Wee1 kinase (Homo sapiens, UniProt P30291); assay: Wee1 time-resolved fluorescence equilibrium binding assay (probe displacement); conditions: GST-tagged-Wee1 kinase 2 nM, fluorescent probe 300 nM, 1 hour incubation; read-out: Wee-1 binding (Ki nM)
T1 construct: purchased Carnabio 05-177
Method: Wee1 kinase was assayed using a time-resolved fluorescence equilibrium binding assay monitoring displacement of a rapidly reversible Oregon Green-labeled ATP-competitive kinase probe (N-(2-(2-(2-(4-(4-(5-chloro-4-(2-(1-hydroxycyclobutyl)thiazol-5-yl)-1H-pyrrolo[2,3-b]pyridin-2-yl)phenyl)piperazin-1-yl)ethoxy)ethoxy)ethyl)-2′,7′-difluoro-3′,6′-dihydroxy-3-oxo-3H-spiro[isobenzofuran-1,9′-xanthene]-5-carboxamide) by competitive Wee1 inhibitors.

T1 sequence (P30291 whole entry): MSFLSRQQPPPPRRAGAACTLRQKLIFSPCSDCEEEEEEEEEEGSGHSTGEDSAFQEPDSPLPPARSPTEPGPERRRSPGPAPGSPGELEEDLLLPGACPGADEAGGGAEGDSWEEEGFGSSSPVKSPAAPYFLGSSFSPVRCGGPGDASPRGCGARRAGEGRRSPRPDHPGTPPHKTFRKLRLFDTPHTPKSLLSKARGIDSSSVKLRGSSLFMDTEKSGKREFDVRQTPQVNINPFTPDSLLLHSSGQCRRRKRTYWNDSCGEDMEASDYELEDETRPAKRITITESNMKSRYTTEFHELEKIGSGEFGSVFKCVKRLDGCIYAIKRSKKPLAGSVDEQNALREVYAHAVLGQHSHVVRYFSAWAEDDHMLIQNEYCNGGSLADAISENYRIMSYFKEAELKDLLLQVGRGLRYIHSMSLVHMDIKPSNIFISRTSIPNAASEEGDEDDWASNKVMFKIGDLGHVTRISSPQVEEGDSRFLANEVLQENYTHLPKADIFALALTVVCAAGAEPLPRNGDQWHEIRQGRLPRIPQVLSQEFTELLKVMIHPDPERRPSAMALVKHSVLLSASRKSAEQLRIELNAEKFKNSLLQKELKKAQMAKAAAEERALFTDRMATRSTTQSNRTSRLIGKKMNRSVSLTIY

| Ki [nM] | SMILES |
| --- | --- |
| 0.7 | Cn1cc(-c2c(Cl)cccc2Cl)c(=O)c2cnc(Nc3ccc(N[C@@H]4CCNC4)cc3)nc21 [Example 63, 6-(2,6-dichlorophenyl)-8-methyl-2-({4-[(3R)-pyrrolidin-3-ylamino]phenyl}amino)pyrido[2,3-d]pyrimidin-5(8H)-one] |
| 0.4 | Cn1cc(-c2c(Cl)cccc2Cl)c(=O)c2cnc(Nc3ccc(N[C@H]4CCNC4)cc3)nc21 [Example 64, 6-(2,6-dichlorophenyl)-8-methyl-2-({4-[(3S)-pyrrolidin-3-ylamino]phenyl}amino)pyrido[2,3-d]pyrimidin-5(8H)-one] |
| 0.3 | Cn1cc(-c2c(Cl)cccc2Cl)c(=O)c2cnc(Nc3ccc4c(c3)CNC4(C)C)nc21 [Example 65, 6-(2,6-dichlorophenyl)-2-[(1,1-dimethyl-2,3-dihydro-1H-isoindol-5-yl)amino]-8-methylpyrido[2,3-d]pyrimidin-5(8H)-one] |
| 0.4 | Cn1cc(-c2c(Cl)cccc2Cl)c(=O)c2cnc(Nc3ccc(NC4CCNCC4)cc3)nc21 [Example 66, 6-(2,6-dichlorophenyl)-8-methyl-2-{[4-(piperidin-4-ylamino)phenyl]amino}pyrido[2,3-d]pyrimidin-5(8H)-one] |
| 0.5 | CN1CCC(Nc2ccc(Nc3ncc4c(=O)c(-c5c(Cl)cccc5Cl)cn(C)c4n3)cc2)C1 (centres unmarked) [Example 67, 6-(2,6-dichlorophenyl)-8-methyl-2-({4-[(1-methylpyrrolidin-3-yl)amino]phenyl}amino)pyrido[2,3-d]pyrimidin-5(8H)-one] |
| 0.4 | CN1CCC(Oc2ccc(Nc3ncc4c(=O)c(-c5c(Cl)cccc5Cl)cn(C)c4n3)cc2)CC1 [Example 68, 6-(2,6-dichlorophenyl)-8-methyl-2-({4-[(1-methylpiperidin-4-yl)oxy]phenyl}amino)pyrido[2,3-d]pyrimidin-5(8H)-one] |
| 3 | CN1CCC(Nc2ccc(Nc3ncc4c(=O)c(-c5c(F)cccc5Cl)cn(C)c4n3)cc2)CC1 [Example 69, 6-(2-chloro-6-fluorophenyl)-8-methyl-2-({4-[(1-methylpiperidin-4-yl)amino]phenyl}amino)pyrido[2,3-d]pyrimidin-5(8H)-one] |
| 0.2 | CN1Cc2cc(Nc3ncc4c(=O)c(-c5c(F)cccc5Cl)cn(C)c4n3)ccc2C1(C)C [Example 70, 6-(2-chloro-6-fluorophenyl)-8-methyl-2-[(1,1,2-trimethyl-2,3-dihydro-1H-isoindol-5-yl)amino]pyrido[2,3-d]pyrimidin-5(8H)-one] |
| 0.7 | COC(=O)c1cc(Nc2ncc3c(=O)c(-c4c(Cl)cccc4Cl)cn(C)c3n2)ccc1N1CCN(C)CC1 [Example 71, methyl 5-{[6-(2,6-dichlorophenyl)-8-methyl-5-oxo-5,8-dihydropyrido[2,3-d]pyrimidin-2-yl]amino}-2-(4-methylpiperazin-1-yl)benzoate] |
| 0.5 | CN(C)C1CCN(C2Cc3ccc(Nc4ncc5c(=O)c(-c6c(Cl)cccc6Cl)cn(C)c5n4)cc3C2)CC1 (centres unmarked) [Example 72, 6-(2,6-dichlorophenyl)-2-({2-[4-(dimethylamino)piperidin-1-yl]-2,3-dihydro-1H-inden-5-yl}amino)-8-methylpyrido[2,3-d]pyrimidin-5(8H)-one] |
| 2.8 | Cn1cc(-c2c(F)cccc2Cl)c(=O)c2cnc(Nc3ccc(NC4CCNCC4)cc3)nc21 [Example 73, 6-(2-chloro-6-fluorophenyl)-8-methyl-2-{[4-(piperidin-4-ylamino)phenyl]amino}pyrido[2,3-d]pyrimidin-5(8H)-one] |
| 1.2 | Cn1cc(-c2c(F)cccc2Cl)c(=O)c2cnc(Nc3ccc4c(c3)CNCC4)nc21 [Example 74, 6-(2-chloro-6-fluorophenyl)-8-methyl-2-(1,2,3,4-tetrahydroisoquinolin-7-ylamino)pyrido[2,3-d]pyrimidin-5(8H)-one] |
| 1.3 | Cn1cc(-c2c(F)cccc2Cl)c(=O)c2cnc(Nc3ccc4c(c3)CCNC4)nc21 [Example 75, 6-(2-chloro-6-fluorophenyl)-8-methyl-2-(1,2,3,4-tetrahydroisoquinolin-6-ylamino)pyrido[2,3-d]pyrimidin-5(8H)-one] |
| 0.7 | Cn1cc(-c2c(Cl)cccc2Cl)c(=O)c2cnc(Nc3ccc(N[C@H]4CC[C@H](N(C)C)CC4)cc3)nc21 [Example 76, 6-(2,6-dichlorophenyl)-2-[(4-{[trans-4-(dimethylamino)cyclohexyl]amino}phenyl)amino]-8-methylpyrido[2,3-d]pyrimidin-5(8H)-one] |
| 0.5 | Cn1cc(-c2c(Cl)cccc2Cl)c(=O)c2cnc(Nc3ccc(N[C@H]4CC[C@@H](N(C)C)CC4)cc3)nc21 [Example 77, 6-(2,6-dichlorophenyl)-2-[(4-{[cis-4-(dimethylamino)cyclohexyl]amino}phenyl)amino]-8-methylpyrido[2,3-d]pyrimidin-5(8H)-one] |
| 1.2 | CN(C)CCCN1CCN(c2ccc(Nc3ncc4c(=O)c(-c5c(Cl)cccc5Cl)cn(C)c4n3)cc2)CC1 [Example 78, 6-(2,6-dichlorophenyl)-2-[(4-{4-[3-(dimethylamino)propyl]piperazin-1-yl}phenyl)amino]-8-methylpyrido[2,3-d]pyrimidin-5(8H)-one] |
| 0.8 | CN(C)CCN1CCN(c2ccc(Nc3ncc4c(=O)c(-c5c(Cl)cccc5Cl)cn(C)c4n3)cc2)CC1 [Example 79, 6-(2,6-dichlorophenyl)-2-[(4-{4-[2-(dimethylamino)ethyl]piperazin-1-yl}phenyl)amino]-8-methylpyrido[2,3-d]pyrimidin-5(8H)-one] |
